According to patent US20260325473A1, “N-Beta-Hydroxybutyryl-Amino Acids and Related Compositions and Methods” (The Board of Trustees of the Leland Stanford Junior …, priority 2023, published 2026):

What was measured:
[1] = biological target: T1, CNDP2 (Mus musculus, UniProt Q9D1A2); assay: In vitro synthase (condensation) activity, lysates of CNDP2-transfected HEK293T cells; type: biochemical; parameters: expressed in transfected cells; host or cells: HEK293T (lysate); conditions: role: substrate; for amino acid selectivity for the BHB-ylation reaction: amino acid 20 mM with BHB 20 mM
T1 sequence (Q9D1A2 1-475): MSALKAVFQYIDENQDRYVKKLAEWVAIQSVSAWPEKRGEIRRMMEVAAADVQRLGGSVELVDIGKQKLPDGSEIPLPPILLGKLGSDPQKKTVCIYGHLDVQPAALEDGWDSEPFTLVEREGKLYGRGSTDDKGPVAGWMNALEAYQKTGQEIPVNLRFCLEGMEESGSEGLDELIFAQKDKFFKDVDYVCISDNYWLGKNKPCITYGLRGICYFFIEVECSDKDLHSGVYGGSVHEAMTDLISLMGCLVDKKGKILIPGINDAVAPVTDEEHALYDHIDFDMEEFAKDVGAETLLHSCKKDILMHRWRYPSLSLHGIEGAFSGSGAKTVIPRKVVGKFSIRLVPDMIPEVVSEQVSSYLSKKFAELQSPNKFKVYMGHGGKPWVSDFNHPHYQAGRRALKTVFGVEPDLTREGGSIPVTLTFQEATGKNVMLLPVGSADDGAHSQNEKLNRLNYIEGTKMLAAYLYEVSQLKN
Experimental: In vitro enzyme activity assays. HEK293T cells were transfected with GFP, CNDP2 or CNDP2-E166A using PolyFect (Qiagen 301105) according to the manufacturer's instructions. The medium was changed one day post-transfection. After an additional 24 h, the cells were harvested in PBS, lysed by sonication and centrifuged (10 min at 15,000 rpm) to remove debris. Supernatant was collected and protein concentrations were adjusted. The in vitro reactions were conducted in Eppendorf tubes with 100 μL of 1 mg/mL protein and 20 mM substrates for keto amino acid synthase activity assays and. Reactions were incubated for 1 h at 37° C. and 20 μl of 1 M HCl were added to acidify the medium and to protonate keto amino acids. Reactions were vortexed and 400 μL of ethyl acetate were added to each reaction. Reactions were vortexed for 30 s to extract keto amino acids into the organic layer and centrifuged at 4° C. for 10 min at 15,000 r.p.m. A total of 300 μl from the top layer was transferred to a new Eppendorf tube and dried down under a stream of nitrogen. The residue was re-suspended in 150 μl of an 2:1:1 mixture of acetonitrile: methanol: water. The mixture was centrifuged at 4° C. for 10 min at 15,000 r.p.m. and the supernatant was transferred to a LC-MS vial.

[2] = tested on: DIO mice; assay: Chronic administration in DIO mice: body weight and food intake; type: in vivo, mouse; conditions: for body weight, head-to-head keto amino acids: 5 days, vs vehicle
Experimental: General animal information. Animal experiments were performed according to procedure approved by the Stanford University Administrative Panel on Laboratory Animal Care (APLAC). Mice were maintained in 12-hr light-dark cycles at 22° C. and ~50% relative humidity and fed a standard irradiated rodent chow diet. Where indicated, high-fat diet (D12492, Research Diets 60% kcal from fat) and ketogenic diet (D06040601, Research Diets, 80% kcal fat/15% kcal protein/5% kcal carbohydrate) was used. Male C57BL/6J (stock no. 000664) and male C57BL/6J DIO mice (stock no. 380050) were purchased from Jackson Laboratory. Male C57BL/6NCrl (stock no. 027) mice were purchased from Charles River Laboratory. Whole body CNDP2-KO mice (catalog number, C57BL/6NCrl-Cndp2em1 (IMPC) Mbp/Mmucd, RRID: MMRRC_043492-UCD) were obtained from the Mutant Mouse Regional Resource Center, a NCRR-NIH funded strain repository. For in vivo injection of mice with metabolites, compounds were dissolved in 18:1:1 (by volume) of saline/Kolliphor EL (Sigma Aldrich)/DMSO. Compounds were administered to mice daily via intraperitoneal injections at 5 μl/g body weight at the indicated doses. For all injection experiments, mice were mock injected with the vehicle for 3-5 days until body weights have stabilized. Sample sizes were determined on the basis of previous experiments using similar methodologies. For metabolite administration experiments, mice were randomly assigned to treatment groups. Experimenters were not blinded to groups.

[3] = biological target: T1, CNDP2; assay: Tissue enzyme activity, WT or CNDP2-KO mouse tissue lysates; type: biochemical; conditions: role: product, BHB 20 mM + amino acid 20 mM; for synthesis activity in WT kidney and gut: 1 h, 37° C
Experimental: (§1) Tissue enzyme activity assays. Mouse tissues were mixed with cold PBS and homogenized using a Benchmark BeadBlaster Homogenizer at 4 °C. Protein concentrations were adjusted and the resulting crude was filtered through a 0.45-μm filter to remove insoluble materials. The in vitro reactions were conducted in Eppendorf tubes with 200 μg protein and incubation with the corresponding substrates at 37° C. for 1 hour. After that time, 10 μl of HCl and 400 μl of ethyl acetate were added in the BHB and lactate reactions and the samples were vortexed for 30 s. Reactions were centrifuged at 4° C. for 10 min at 15,000 r.p.m. and total of 300 μl from the top layer was transferred to a new Eppendorf tube and dried down under a stream of nitrogen. The residue was re-suspended in 100 μl of an 2:1:1 mixture of acetonitrile: methanol: water. The mixture was centrifuged at 4° C. for 10 min at 15,000 r.p.m. and the supernatant was transferred to a LC-MS vial. For carnosine reactions, the reactions were not acidified and were directly quenched with 300 μl of an 2:1:1 mixture of acetonitrile: methanol: water after the 1 h incubation and vortexed for 30 s. The mixture was centrifuged at 4° C. for 10 min at 15,000 r.p.m. and the supernatant was transferred to a LC-MS vial.

[4] = Human ketone ester supplementation study, plasma metabolites; type: in vivo; conditions: ketone ester drink cohort
Experimental: (§2) Targeted metabolomics. Targeted measurements were performed using an Agilent 6470 triple quadrupole LC-MS instrument. MS analysis was performed using AJS in negative mode. The AJS source parameters were set as follows: the dry gas temperature was set at 250° C. with a gas flow of 12 l/min and the nebulizer pressure at 25 psi; the sheath gas temperature was set to 300° C. with the sheath gas flow set at 12 l/min; and the capillary voltage was set to 3,500 V. Separation of polar metabolites was performed as described above in the ‘Untargeted measurements of metabolites by LC-MS’ section. Multiple reaction monitoring was performed for the indicated metabolites with the listed dwell times, fragmentor voltage, collision energies, cell accelerator voltages and polarities. Quantification of the endogenous metabolite concentrations were performed by generating a standard curve with known concentrations of each metabolite. Metabolite standards were analyzed alongside the plasma samples using the same targeted triple quadrupole LC/MS method. A calibration standard curve generated from the metabolite standard concentrations and total peak areas were used to calculate the concentrations of each endogenous metabolite. The dilution of the plasma during the sample preparation was also taken into account for the quantification.
Human ketone ester supplementation study. Following screening, eligible subjects participated in a randomized, counter-balanced, double-blind, placebo-controlled crossover trial comparing BHB supplementation versus placebo, separated by a minimum of 2 days (ClinicalTrials.gov ID NCT04194450). Pre-menopausal women were tested in the follicular phase (days 3-9). Participants were asked to refrain from structured exercise and alcohol, limit physical activity, and follow a standardized diet (~50% carbohydrate, ~30% fat, ~20% protein) on the day before each trial. After refraining from medication use for 24 hours, participants reported to the Exercise, Metabolism and Inflammation Laboratory at the University of British Columbia-Okanagan in an overnight fasted state. Anthropometric measurements were obtained prior to insertion of an indwelling intravenous catheter into the antecubital vein for repeated blood sampling. Blood was collected into EDTA tubes (BD, 367863) and immediately centrifuged at 2000 rpm for 15 min and the top layer of plasma was aliquoted and frozen at −80 °C. After baseline (0) blood sample collection, the oral BHB supplement or placebo was consumed in liquid form (~30-65 mL). The BHB supplement (H.V.M.N®, USA) in the form of the ketone monoester (R)-3-hydroxybutyl (R)-3-hydroxybutyrate (AG®, TDeltaS, Oxford, UK) contained 0.4 g mL-1 BHB, natural flavoring, and <2% stevia leaf extract. The taste-matched placebo drink contained the same natural flavoring as the ketone supplement, stevia leaf extract, 5 mL of Bittrex stock (0.005 g of denatonium benzoate powder in 40 ml of water) and 1.5 mL of arrowroot stock (2 g of arrowroot powder in 50 ml of water) to match the bitter flavor and viscosity of the ketone monoester. Supplements were dispensed into opaque 80 ml bottles with volume calculated for 0.3 g BHB/kg body weight and labelled either A or B by a third-party researcher. Blinding was maintained until completion of data collection and analyses.

[5] = Keto-Med study, plasma metabolites; type: in vivo; conditions: human; 4 weeks WFKD vs baseline
Experimental: as §2
Keto-Med study. Keto-Med was a single-site, randomized, crossover, interventional trial comparing 2 metabolically distinct diets (well-formulated ketogenic diet, WFKD; and Mediterranean-plus diet, Med-Plus) among individuals with prediabetes and T2DM. Forty participants aged ≥18 years with prediabetes or T2DM followed the WFKD and the Med-Plus for 12 weeks each, in random order. Participants were randomly assigned into 1 of 2 different diet sequences: WFKD for 12 weeks (phase 1) and then the Med-Plus for 12 weeks (phase 2), or the opposite order. Ad libitum intake was advised, and participants were guided to follow 2 sets of dietary guidelines that shared 3 important similarities (incorporating nonstarchy vegetables and avoiding added sugars and refined grains) and 3 important differences (incorporating compared with avoiding legumes, fruits, and whole, intact grains). During the WFKD phase, participants were counseled to sustain nutritional ketosis by limiting carbohydrates to 20-50 g/day and keeping proteins to ~1.5 g/kg ideal body weight/day, with the remaining kcals coming from fats. Participants were also instructed to consume >3 servings/day of nonstarchy vegetables and maintain adequate mineral and fluid intake for the ketogenic state (sodium, 3-5 g/day; potassium, 3-4 g/day). […]

[6] = biological target: T1, CNDP2; assay: Carnosine hydrolysis (carnosinase activity) in WT or CNDP2-KO mouse tissue lysates; type: biochemical; conditions: role: substrate, 10 mM carnosine
Experimental: as §1

CC(CO)C(=O)O (centres unmarked) [3-HIB, 3-hydroxisobutyric acid]
CNDP2-dependent condensation activity with C4-hydroxycarboxylic acid isomers ([1]; with phenylalanine): not detected

CC(O)CC(=O)N[C@@H](Cc1c[nH]cn1)C(=O)O (some centres unmarked) [BHB-His]
food intake and body weight, related metabolites and dipeptides ([2]; 50 mg/kg IP, 9 days): failed to reduce food intake or body weight

CC(C)C[C@H](NC(=O)CC(C)O)C(=O)O (some centres unmarked) [BHB-Leu, N-betahydroxybutyryl-leucine]
BHB-amino acid synthesis activity in CNDP2-KO kidney and gut [3]: largely abolished
synthesis activity in WT kidney and gut [3]: highest BHB-amino acid synthesis activity
body weight, head-to-head keto amino acids ([2]; 50 mg/kg/day IP): effective in suppressing body weight

CSCC[C@H](NC(=O)CC(C)O)C(=O)O (some centres unmarked) [BHB-Met, N-betahydroxybutyryl-methionine]
BHB-amino acid synthesis activity in CNDP2-KO kidney and gut [3]: largely abolished
synthesis activity in WT kidney and gut [3]: highest BHB-amino acid synthesis activity
body weight, head-to-head keto amino acids ([2]; 50 mg/kg/day IP): effective in suppressing body weight

C[C@@H](O)CC(=O)N[C@@H](CCC(N)=O)C(=O)O [Keto-Gln]
induction by ketone ester drink [4]: had not been observed to be induced by ketone ester drink
induction of plasma keto amino acids on WFKD [5]: Robust induction

C[C@@H](O)CC(=O)N[C@H](C(=O)O)[C@@H](C)O [Keto-Thr]
induction by ketone ester drink [4]: had not been observed to be induced by ketone ester drink
induction of plasma keto amino acids on WFKD [5]: Robust induction

NCCC(=O)N[C@@H](Cc1cnc[nH]1)C(=O)O [carnosine]
carnosine hydrolysis across tissues [6]: highest activity in liver and quadriceps and little activity in the kidney, gut, and brain
carnosinase activity, effect of CNDP2 ablation ([6]; CNDP2-KO vs WT): not sensitive to genetic ablation of CNDP2

CC[C@H](C)[C@H](N)C(=O)O [isoleucine]
amino acid selectivity for the BHB-ylation reaction [1]: CNDP2 catalyzed BHB-ylation

C[C@H](O)C(=O)O [lactate]
product formed with lactate and phenylalanine as only substrates ([1]; lactate alone with 20 mM phenylalanine): exclusive production of Lac-Phe

CC(C)C[C@H](N)C(=O)O [leucine]
amino acid selectivity for the BHB-ylation reaction [1]: CNDP2 catalyzed BHB-ylation

N[C@@H](Cc1ccccc1)C(=O)O [phenylalanine, reference compound]
body weight and food intake, conjugate vs components ([2]; 50 mg/kg/day IP, BHB or phenylalanine at the same doses, 9 days): without effect
amino acid selectivity for the BHB-ylation reaction [1]: CNDP2 catalyzed BHB-ylation

CC(C)[C@H](N)C(=O)O [valine]
amino acid selectivity for the BHB-ylation reaction [1]: CNDP2 catalyzed BHB-ylation
